Series [1] is described as follows: Cytotoxicity against HEK293T cells assessed as cell growth inhibition incubated for 5 days by MTT assay. The format is toxicity, cell-based, HEK-293T. The following applies: human, time 5 day.
Series [2] has as its target Glutamate carboxypeptidase 2 (Homo sapiens, UniProt Q04609). Briefly: Inhibition of PSMA derived from human LNCaP cell lysate assessed as inhibition of NAAG hydrolysis incubated for 2 hrs in presence of NAAG by Amplex Red assay. The format is subcellular.
A short description of series [3]: Cytotoxicity against human WI-38 VA13 cells assessed as cell growth inhibition incubated for 5 days by MTT assay. The format is toxicity, cell-based. The following applies: time 5 day.
Series [4] deals with MCF7. Briefly: Cytotoxicity against human MCF7 cells assessed as cell growth inhibition incubated for 5 days by MTT assay. The conditions noted are these: MCF7, 120 h, time 5 day. The format is functional.
The subject of series [5] is A549. Briefly: Cytotoxicity against human A549 cells assessed as cell growth inhibition incubated for 5 days by MTT assay. The following applies: A549, 120 h, time 5 day. The format is functional.

The structures appear in SMILES notation. Bounds are passed on as bounds.

Glutamate carboxypeptidase 2, sequence (Q04609 whole entry): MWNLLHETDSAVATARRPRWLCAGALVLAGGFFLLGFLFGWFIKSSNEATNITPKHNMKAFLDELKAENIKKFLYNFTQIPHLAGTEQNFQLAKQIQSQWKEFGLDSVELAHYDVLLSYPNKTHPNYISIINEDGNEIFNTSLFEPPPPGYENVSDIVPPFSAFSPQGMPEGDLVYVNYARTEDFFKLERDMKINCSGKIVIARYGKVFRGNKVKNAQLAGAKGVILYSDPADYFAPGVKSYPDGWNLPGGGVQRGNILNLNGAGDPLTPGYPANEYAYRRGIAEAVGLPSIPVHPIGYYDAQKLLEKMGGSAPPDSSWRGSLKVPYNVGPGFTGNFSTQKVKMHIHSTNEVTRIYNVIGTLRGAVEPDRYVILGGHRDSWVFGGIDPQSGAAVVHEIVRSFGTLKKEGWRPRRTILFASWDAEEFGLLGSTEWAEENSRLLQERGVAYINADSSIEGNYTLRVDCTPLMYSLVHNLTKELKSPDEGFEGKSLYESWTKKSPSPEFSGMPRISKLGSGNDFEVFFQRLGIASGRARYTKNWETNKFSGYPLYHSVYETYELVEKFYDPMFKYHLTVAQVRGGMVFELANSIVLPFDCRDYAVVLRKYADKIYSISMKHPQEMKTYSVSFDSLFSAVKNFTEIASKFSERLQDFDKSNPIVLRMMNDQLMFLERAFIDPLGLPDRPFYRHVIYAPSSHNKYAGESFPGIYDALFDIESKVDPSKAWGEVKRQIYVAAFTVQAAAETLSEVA

For the molecule `[N-]=[N+]=NCCCNC(=O)[C@@H](Cc1ccccc1)NC(=O)[C@@H](Cc1ccccc1)NC(=O)CCC(=O)NCCCCCC(=O)N(CCCC[C@H](NC(=O)N[C@@H](CCC(=O)O)C(=O)O)C(=O)O)Cc1ccc(Cl)c(F)c1`, the CC50 at 120 h in series [1] is 51 µM; in series [3], over 100 µM. For the same molecule, the IC50 in series [2] stood at 0.294 µM. The CC50 in series [4] and in series [5] was over 100 µM each time. As to `[N-]=[N+]=NCCCNC(=O)[C@H](Cc1ccccc1)NC(=O)[C@H](Cc1ccccc1)NC(=O)CCC(=O)NCCCCCC(=O)N(CCCC[C@H](NC(=O)N[C@@H](CCC(=O)O)C(=O)O)C(=O)O)Cc1cccc(Cl)c1`, in series [2], the IC50 was 0.038 µM.

As for `[N-]=[N+]=NCCCNC(=O)[C@@H](Cc1ccc(O)cc1)NC(=O)[C@@H](Cc1ccccc1)NC(=O)CCC(=O)NCCCCCC(=O)N(CCCC[C@H](NC(=O)N[C@@H](CCC(=O)O)C(=O)O)C(=O)O)Cc1ccc(Cl)c(F)c1`, in series [2], the IC50 was 0.108 µM. Turning to `[N-]=[N+]=NCCCNC(=O)[C@@H](Cc1ccccc1)NC(=O)[C@@H](Cc1ccccc1)NC(=O)CCC(=O)NCCCCCC(=O)N(CCCC[C@H](NC(=O)N[C@@H](CCC(=O)O)C(=O)O)C(=O)O)Cc1cccc(Cl)c1`, the IC50 in series [2] turned out to be 0.046 µM. In the case of `[N-]=[N+]=NCCCNC(=O)[C@@H](Cc1ccc(O)c(Br)c1)NC(=O)[C@@H](Cc1ccccc1)NC(=O)CCC(=O)NCCCCCC(=O)N(CCCC[C@H](NC(=O)N[C@@H](CCC(=O)O)C(=O)O)C(=O)O)Cc1cccc(Cl)c1`, the IC50 in series [2] was determined as 0.08 µM.

`[N-]=[N+]=NCCCNC(=O)[C@@H](Cc1ccccc1)NC(=O)[C@@H](Cc1ccccc1)NC(=O)CCC(=O)NCCCCCC(=O)N(CCCC[C@H](NC(=O)N[C@@H](CCC(=O)O)C(=O)O)C(=O)O)Cc1ccc(Cl)cc1`: in series [2], the IC50 worked out at 0.226 µM.

For `[N-]=[N+]=NCCCNC(=O)[C@@H](Cc1ccc(O)c(Br)c1)NC(=O)[C@@H](Cc1ccccc1)NC(=O)CCC(=O)NCCCCCC(=O)N(CCCC[C@H](NC(=O)N[C@@H](CCC(=O)O)C(=O)O)C(=O)O)Cc1ccc(Br)cc1`, the IC50 in series [2] came out at 0.089 µM. For the molecule `[N-]=[N+]=NCCCNC(=O)[C@@H](Cc1ccc(O)cc1)NC(=O)[C@@H](Cc1ccccc1)NC(=O)CCC(=O)NCCCCCC(=O)N(CCCC[C@H](NC(=O)N[C@@H](CCC(=O)O)C(=O)O)C(=O)O)Cc1ccc(Br)cc1`, the IC50 in series [2] was determined as 3.16 µM.

With `[N-]=[N+]=NCCCNC(=O)[C@@H](Cc1ccc(O)cc1)NC(=O)[C@@H](Cc1ccccc1)NC(=O)CCC(=O)NCCCCCC(=O)N(CCCC[C@H](NC(=O)N[C@@H](CCC(=O)O)C(=O)O)C(=O)O)Cc1cccc(Cl)c1`, the IC50 in series [2] turned out to be 0.107 µM. Still for that read-out and setting: as for `[N-]=[N+]=NCCCNC(=O)[C@H](Cc1ccccc1)NC(=O)[C@H](Cc1ccccc1)NC(=O)CCC(=O)NCCCCCC(=O)N(CCCC[C@H](NC(=O)N[C@@H](CCC(=O)O)C(=O)O)C(=O)O)Cc1ccc(Cl)cc1`, the figure is 0.055 µM; as for `[N-]=[N+]=NCCCNC(=O)[C@H](Cc1ccc(O)cc1)NC(=O)[C@H](Cc1ccccc1)NC(=O)CCC(=O)NCCCCCC(=O)N(CCCC[C@H](NC(=O)N[C@@H](CCC(=O)O)C(=O)O)C(=O)O)Cc1ccc(Cl)cc1`, 0.046 µM. As for `NCCCC[C@H](NC(=O)N[C@@H](CCC(=O)O)C(=O)O)C(=O)O`, the CC50 at 120 h in series [1] and in series [3] was over 100 µM in each case. Further, the CC50 in series [4] and in series [5] was over 100 µM each time. Take `[N-]=[N+]=NCCCNC(=O)[C@H](Cc1ccccc1)NC(=O)[C@H](Cc1ccccc1)NC(=O)CCC(=O)NCCCCCC(=O)NCCCC[C@H](NC(=O)N[C@@H](CCC(=O)O)C(=O)O)C(=O)O`: the CC50 at 120 h in series [1] was 62 µM; in series [3], over 100 µM. Moreover, the CC50 in series [4] and in series [5] was over 100 µM each time. As to `[N-]=[N+]=NCCCNC(=O)[C@@H](Cc1ccc(O)cc1)NC(=O)[C@@H](Cc1ccccc1)NC(=O)CCC(=O)NCCCCCC(=O)N(CCCC[C@H](NC(=O)N[C@@H](CCC(=O)O)C(=O)O)C(=O)O)Cc1ccc(Cl)cc1`, the IC50 in series [2] stood at 0.027 µM.

The values above are taken from ChEMBL document CHEMBL5096171, “Synthesis and Biological Evaluation of PSMA Ligands with Aromatic Residues and Fluorescent Conjugates Based on Them” (J Med Chem, 2021).
